pIC50: −log10 of the molar value. Activity calls are given as the source filed them. The rule behind the calls is not given here.
Experiments:
MV4-11 [1] = assay: Induction of apoptosis in human MV4-11 cells assessed as early apoptotic cells at 10 nM incubated for 24 hrs by AnnexinV-FITC/PI staining based flow cytometry (reference value: 3.09%); assay type: functional
[2] = Induction of cell cycle arrest in mouse HCD-57 cells at 100 nM incubated for 24 hrs by PI staining based flow cytometry; assay type: toxicity; conditions: hcd-57, 24 h, 0.1 µM
MV4-11 [3] = assay: Induction of cell cycle arrest in human MV4-11 cells assessed as proportion of cells at G1 phase at 10 nM incubated for 24 hrs by PI staining based flow cytometry (reference value: 56%); assay type: functional
MV4-11 [4] = assay: Induction of cell cycle arrest in human MV4-11 cells assessed as proportion of cells at G1 phase at 100 nM incubated for 24 hrs by PI staining based flow cytometry (reference value: 56%); assay type: functional
[5] = target: Receptor-type tyrosine-protein kinase FLT3 (Homo sapiens) (UniProt P36888); assay: Inhibition of FLT3 in human MV4-11 cells assessed as inhibition of FLT3 phosphorylation at Tyr589/591 residue incubated for 4 hrs by western blot analysis; assay type: cell-based; conditions: dose 0.1-100 nM
HCD-57 [6] = assay: Induction of cell cycle arrest in mouse HCD-57 cells harboring FLT3-D835Y mutant at 100 nM incubated for 24 hrs by PI staining based flow cytometry; assay type: functional
MV4-11 [7] = assay: Antitumor activity against human MV4-11 cells xenografted in BALB/c mouse assessed as tumor growth inhibition at 15 mg/kg, iv QD for 21 days by vernier caliper analysis; assay type: functional; conditions: MV4-11, 504 h, time 21 day, read-out: TGI
[8] = target: Receptor-type tyrosine-protein kinase FLT3 (Homo sapiens) (UniProt P36888); assay: Inhibition of FLT3 in human MV4-11 cells assessed as inhibition of FLT3 phosphorylation at Tyr589/591 residue at 10 nM incubated for 4 hrs by western blot analysis; assay type: cell-based
HCD-57 [9] = assay: Induction of apoptosis in mouse HCD-57 cells harboring FLT3-ITD mutant at 100 nM incubated for 24 hrs by AnnexinV-FITC/PI staining based flow cytometry; assay type: functional, cell-based
[10] = Tmax in Sprague-Dawley rat at 10 mg/kg, po measured for 24 hrs by LC-MS/MS analysis; assay type: ADME, organism-based; conditions: in vivo
BaF3 [11] = assay: Antiproliferative activity against mouse BaF3 cells harboring FLT3-ITD-F691L mutant assessed as reduction in cell viability incubated for 72 hrs by CellTiterGlo luminescent assay; assay type: functional, cell-based; conditions: BaF3, 72 h
MV4-11 [12] = assay: Induction of cell cycle arrest in human MV4-11 cells assessed as proportion of cells at G1 phase at 50 nM incubated for 24 hrs by PI staining based flow cytometry (reference value: 56%); assay type: functional
[13] = Initial drug concentration in Sprague-Dawley at 1 mg/kg, iv by LC-MS/MS analysis; assay type: ADME, organism-based; conditions: rat, in vivo
[14] = target: Receptor-type tyrosine-protein kinase FLT3 (Homo sapiens) (UniProt P36888); assay: Inhibition of FLT3 in human MV4-11 cells assessed as inhibition of ERK phosphorylation at Thr202/Tyr204 residue incubated for 4 hrs by western blot analysis; assay type: cell-based; conditions: dose 0.1-100 nM
[15] = Antiproliferative activity against mouse HCD-57 cells assessed as reduction in cell viability measured after 72 hrs by CellTiterGlo luminescent assay; assay type: toxicity, cell-based; conditions: hcd-57, 72 h
[16] = Antiproliferative activity against mouse BaF3 cells assessed as reduction in cell viability measured after 72 hrs by CellTiterGlo luminescent assay; assay type: toxicity, cell-based
[17] = Ratio of IC50 for antiproliferative activity against mouse BaF3 cells harboring FLT3-ITD-Y842H mutant to IC50 for antiproliferative activity against mouse BaF3 cells harboring FLT3-ITD mutant; assay type: functional
[18] = Ratio of IC50 for antiproliferative activity against mouse BaF3 cells harboring FLT3-ITD-N676D mutant to IC50 for antiproliferative activity against mouse BaF3 cells harboring FLT3-ITD mutant; assay type: functional
MV4-11 [19] = assay: Induction of apoptosis in human MV4-11 cells assessed as necrotic cells at 10 nM incubated for 24 hrs by AnnexinV-FITC/PI staining based flow cytometry (reference value: 0.45%); assay type: functional
[20] = MRT (0 to t) in Sprague-Dawley rat at 1 mg/kg, iv measured for 24 hrs by LC-MS/MS analysis; assay type: ADME, organism-based; conditions: in vivo
[21] = Toxicity in BALB/c mouse xenografted with human MV4-11 cells assessed as neutrophil count at 15 mg/kg, iv for 21 days; assay type: organism-based; conditions: in vivo, 504 h, time 21 day
HCD-57 [22] = assay: Antiproliferative activity against mouse HCD-57 cells harboring FLT3-ITD mutant assessed as reduction in cell viability measured after 72 hrs by CellTiterGlo luminescent assay; assay type: functional, cell-based
[23] = Toxicity in ICR mouse assessed as change in body weight at 100 mg/kg, iv administered as single dose and measured for 14 days; assay type: organism-based; conditions: in vivo, 336 h, time 14 day
[24] = Induction of apoptosis in mouse HCD-57 cells at 100 nM incubated for 24 hrs by AnnexinV-FITC/PI staining based flow cytometry; assay type: toxicity, cell-based; conditions: hcd-57, 24 h, 0.1 µM
Panc02 = assay: Antiproliferative activity against mouse Panc02 cells assessed as reduction in cell viability measured after 72 hrs by CellTiterGlo luminescent assay; assay type: functional, cell-based; conditions: Panc02, 72 h
MV4-11 [25] = assay: Induction of apoptosis in human MV4-11 cells assessed as viable cells at 50 nM incubated for 24 hrs by AnnexinV-FITC/PI staining based flow cytometry (reference value: 92.3%); assay type: functional; conditions: read-out: Activity
MV4-11 [26] = assay: Induction of apoptosis in human MV4-11 cells assessed as late apoptotic cells at 100 nM incubated for 24 hrs by AnnexinV-FITC/PI staining based flow cytometry (reference value: 4.2%); assay type: functional
[27] = system: Receptor-type tyrosine-protein kinase FLT3 (Homo sapiens), P36888 [UNDEFINED MUTATION]; assay: Inhibition of FLT3-ITD-F691L mutant (unknown origin) transformed in mouse BaF3 cells assessed as inhibition of ERK phosphorylation at Thr202/Tyr204 residue incubated for 4 hrs by western blot analysis; assay type: cell-based; conditions: dose 0.1-100 nM
BaF3 [28] = assay: Antiproliferative activity against mouse BaF3 cells harboring FLT3-ITD-F691L mutant assessed as residual cell viability at 10 nM incubated for 72 hrs by CellTiterGlo luminescent assay; assay type: functional
HCD-57 [29] = assay: Induction of cell cycle arrest in mouse HCD-57 cells harboring FLT3-ITD mutant at 100 nM incubated for 24 hrs by PI staining based flow cytometry; assay type: functional
[30] = Half life in Sprague-Dawley rat at 10 mg/kg, po measured for 24 hrs by LC-MS/MS analysis; assay type: ADME, organism-based; conditions: in vivo
BaF3 [31] = assay: Antiproliferative activity against mouse BaF3 cells harboring FLT3-ITD-Y842H mutant assessed as reduction in cell viability measured after 72 hrs by CellTiterGlo luminescent assay; assay type: functional, cell-based; conditions: BaF3, 72 h
[32] = system: Receptor-type tyrosine-protein kinase FLT3 (Homo sapiens), P36888 [UNDEFINED MUTATION]; assay type: cell-based; conditions: BaF3, dose 0.1-100 nM, time 4.0 hrs
BaF3 [33] = assay: Antiproliferative activity against mouse BaF3 cells harboring FLT3-ITD-N676D mutant assessed as reduction in cell viability measured after 72 hrs by CellTiterGlo luminescent assay; assay type: functional, cell-based; conditions: BaF3, 72 h
HCD-57 [34] = assay: Antiproliferative activity against mouse HCD-57 cells harboring FLT3-D835Y mutant assessed as reduction in cell viability measured after 72 hrs by CellTiterGlo luminescent assay; assay type: functional, cell-based
BaF3 [35] = assay: cells; conditions: Mus musculus, BaF3, 72 h
Description: Antiproliferative activity against mouse BaF3 cells harboring FLT3-ITD-D835V mutant assessed as reduction in cell viability measured after 72 hrs by CellTiterGlo luminescent assay

Receptor-type tyrosine-protein kinase FLT3 (Homo sapiens), sequence (P36888 whole entry): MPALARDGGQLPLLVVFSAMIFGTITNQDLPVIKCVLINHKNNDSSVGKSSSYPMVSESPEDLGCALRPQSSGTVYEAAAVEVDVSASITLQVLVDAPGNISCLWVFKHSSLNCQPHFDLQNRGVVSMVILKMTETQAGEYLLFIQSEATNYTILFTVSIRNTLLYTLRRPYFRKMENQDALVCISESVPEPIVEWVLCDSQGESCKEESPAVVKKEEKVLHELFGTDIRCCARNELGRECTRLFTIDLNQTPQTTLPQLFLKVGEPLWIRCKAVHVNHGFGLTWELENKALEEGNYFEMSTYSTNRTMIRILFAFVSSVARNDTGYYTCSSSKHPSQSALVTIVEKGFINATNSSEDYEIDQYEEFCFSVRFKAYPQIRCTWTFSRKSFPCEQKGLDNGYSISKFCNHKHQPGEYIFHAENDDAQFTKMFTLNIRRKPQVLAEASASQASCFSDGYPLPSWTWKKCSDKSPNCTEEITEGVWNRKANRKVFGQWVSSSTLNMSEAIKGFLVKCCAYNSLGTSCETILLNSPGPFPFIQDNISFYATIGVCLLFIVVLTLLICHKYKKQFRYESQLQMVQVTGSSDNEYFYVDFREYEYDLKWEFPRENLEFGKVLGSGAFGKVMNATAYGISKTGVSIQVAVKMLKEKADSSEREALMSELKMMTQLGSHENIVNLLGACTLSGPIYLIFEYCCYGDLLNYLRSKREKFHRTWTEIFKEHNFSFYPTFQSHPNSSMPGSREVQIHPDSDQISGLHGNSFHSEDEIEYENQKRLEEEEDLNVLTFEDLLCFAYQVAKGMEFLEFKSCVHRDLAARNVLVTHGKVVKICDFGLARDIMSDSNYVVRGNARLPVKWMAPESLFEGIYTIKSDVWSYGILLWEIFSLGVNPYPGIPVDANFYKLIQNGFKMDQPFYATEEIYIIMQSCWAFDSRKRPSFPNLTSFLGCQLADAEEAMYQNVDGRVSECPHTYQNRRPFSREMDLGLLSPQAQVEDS
Receptor-type tyrosine-protein kinase FLT3 (Homo sapiens), P36888 [UNDEFINED MUTATION], sequence (P36888 whole entry, looked up, stated change not applied): as the sequence (P36888 whole entry) above

CCN1CCN(c2ccc(C(=O)Nc3cc(-c4ccc5ncn(Cc6c(Cl)cccc6Cl)c5c4)[nH]n3)cc2)CC1
Activity (MV4-11 [1]): 10.4%
Activity [2]: Non-Toxic
Activity (MV4-11 [3]): 88.7%
Activity (MV4-11 [4]): 90.3%
inhibition [5]: Dose-Dependent Effect
Activity (HCD-57 [6]): Active
inhibition in vivo at 15 mg/kg (MV4-11 [7]): 99.5%
inhibition [8]: 100%
Activity (HCD-57 [9]): Active
Tmax [10]: 1.33 h
pIC50 (BaF3 [11]): 8.08
Activity (MV4-11 [12]): 88.1%
C0 [13]: 368 ng/mL
inhibition [14]: Dose-Dependent Effect
Activity [15]: Non-Toxic
IC50 at 72 h [16]: 4100 nM
Ratio IC50 [17]: <0.2
Ratio IC50 [18]: 5.58
Activity (MV4-11 [19]): 1.3%
MRT last at 24 h [20]: 1.96 h
Activity [21]: Non-Toxic
Activity (HCD-57 [22]): Active
Activity [23]: Non-Toxic
Activity [24]: Non-Toxic
pIC50 (Panc02): 5.56
viability at 0.05 µM (MV4-11 [25]): 61.5%
Activity (MV4-11 [26]): 24.5%
inhibition [27]: Dose-Dependent Effect
Activity (BaF3 [28]): 43.16%
Activity (HCD-57 [29]): Active
half-life [30]: 3.58 h
pIC50 (BaF3 [31]): > 8.82
inhibition [32]: Dose-Dependent Effect
pIC50 (BaF3 [33]): 7.37
Activity (HCD-57 [34]): Active
pIC50 (BaF3 [35]): > 8.82

Reference: ChEMBL document CHEMBL5226341, “Discovery of a Potent FLT3 Inhibitor (LT-850-166) with the Capacity of Overcoming a Variety of FLT3 Mutations” (J Med Chem, 2021)
